31 compounds from patent EP1285919A1, “C10 Carbonate substituted taxanes as antitumor agents” (Florida State University Research Foundation, Inc., priority 2001, dated 2003) can be followed below.

Bounds are passed on as bounds.

This test deals with HCT116. Description: In vitro cytotoxicity, cell colony formation assay. The note with it: HCT116; 72 h with drug, colonies counted after 7 days; concentration producing 50% inhibition of colony formation; read-out: IN VITRO ID 50. The class given is cell-based. On the procedure: In Vitro cytotoxicity measured by the cell colony formation assay
Four hundred cells (HCT116) were plated in 60 mm Petri dishes containing 2.7 mL of medium (modified McCoy's 5a medium containing 10% fetal bovine serum and 100 units/mL penicillin and […] streptomycin). The cells were incubated in a CO2 incubator at 37 °C for 5 h for attachment to the bottom of Petri dishes. The compounds identified in Example 2 were made up fresh in medium at ten times the final concentration, and then 0.3 mL of this stock solution was added to the 2.7 mL of medium in the dish. The cells were then incubated with drugs for 72 h at 37 ° C. At the end of incubation the drug-containing media were decanted, the dishes were rinsed with 4 mL of Hank's Balance Salt Solution (HBSS), 5 mL of fresh medium was added, and the dishes were returned to the incubator for colony formation. The cell colonies were counted using a colony counter after incubation for 7 days.
As to `CCOC(=O)OC1C(=O)C2(C)C(O)CC3OCC3(OC(C)=O)C2C(OC(=O)c2ccccc2)C2(O)CC(OC(=O)C(O)C(C=C(C)C)NC(=O)OC(C)(C)C)C(C)=C1C2(C)C` (stereo not shown) [Compound 1788], the IC50 was below 1 nM. For the compound `CCOC(=O)OC1C(=O)C2(C)C(O)CC3OCC3(OC(C)=O)C2C(OC(=O)c2ccccc2)C2(O)CC(OC(=O)C(O)C(NC(=O)OC(C)(C)C)c3ccccn3)C(C)=C1C2(C)C` (stereo not shown) [Compound 1799], the IC50 was below 1 nM. For the compound `CCOC(=O)OC1C(=O)C2(C)C(O)CC3OCC3(OC(C)=O)C2C(OC(=O)c2ccccc2)C2(O)CC(OC(=O)C(O)C(NC(=O)OC(C)(C)C)c3cccnc3)C(C)=C1C2(C)C` (stereo not shown) [Compound 1808], the IC50 is below 10 nM. In the case of `CCOC(=O)OC1C(=O)C2(C)C(O)CC3OCC3(OC(C)=O)C2C(OC(=O)c2ccccc2)C2(O)CC(OC(=O)C(O)C(NC(=O)OC(C)(C)C)c3ccncc3)C(C)=C1C2(C)C` (stereo not shown) [Compound 1811], the IC50 was below 1 nM. As for `CCOC(=O)OC1C(=O)C2(C)C(O)CC3OCC3(OC(C)=O)C2C(OC(=O)c2ccccc2)C2(O)CC(OC(=O)C(O)C(NC(=O)OC(C)(C)C)c3ccco3)C(C)=C1C2(C)C` (stereo not shown) [Compound 1822], the IC50 was below 1 nM. `CCOC(=O)OC1C(=O)C2(C)C(O)CC3OCC3(OC(C)=O)C2C(OC(=O)c2ccccc2)C2(O)CC(OC(=O)C(O)C(NC(=O)OC(C)(C)C)c3ccsc3)C(C)=C1C2(C)C` (stereo not shown) [Compound 1841]: the IC50 is below 1 nM. As for `CCOC(=O)OC1C(=O)C2(C)C(O)CC3OCC3(OC(C)=O)C2C(OC(=O)c2ccccc2)C2(O)CC(OC(=O)C(O)C(NC(=O)OC(C)(C)C)C3CCC3)C(C)=C1C2(C)C` (stereo not shown) [Compound 1855], the figure is below 10 nM. Turning to `CCOC(=O)OC1C(=O)C2(C)C(O)CC3OCC3(OC(C)=O)C2C(OC(=O)c2ccccc2)C2(O)CC(OC(=O)C(O)C(NC(=O)OC(C)(C)C)c3ccc([N+](=O)[O-])cc3)C(C)=C1C2(C)C` (stereo not shown) [Compound 1866], the IC50 is below 1 nM. Take `COC(=O)OC1C(=O)C2(C)C(O)CC3OCC3(OC(C)=O)C2C(OC(=O)c2ccccc2)C2(O)CC(OC(=O)C(O)C(C=C(C)C)NC(=O)OC(C)(C)C)C(C)=C1C2(C)C` (stereo not shown) [Compound 1999]: the IC50 is below 1 nM. The value for `COC(=O)OC1C(=O)C2(C)C(O)CC3OCC3(OC(C)=O)C2C(OC(=O)c2ccccc2)C2(O)CC(OC(=O)C(O)C(NC(=O)OC(C)(C)C)c3ccccn3)C(C)=C1C2(C)C` (stereo not shown) [Compound 2002] was below 1 nM; that for `COC(=O)OC1C(=O)C2(C)C(O)CC3OCC3(OC(C)=O)C2C(OC(=O)c2ccccc2)C2(O)CC(OC(=O)C(O)C(NC(=O)OC(C)(C)C)c3cccnc3)C(C)=C1C2(C)C` (stereo not shown) [Compound 2011] was below 10 nM; that for `COC(=O)OC1C(=O)C2(C)C(O)CC3OCC3(OC(C)=O)C2C(OC(=O)c2ccccc2)C2(O)CC(OC(=O)C(O)C(NC(=O)OC(C)(C)C)c3ccncc3)C(C)=C1C2(C)C` (stereo not shown) [Compound 2020] was below 1 nM. For `COC(=O)OC1C(=O)C2(C)C(O)CC3OCC3(OC(C)=O)C2C(OC(=O)c2ccccc2)C2(O)CC(OC(=O)C(O)C(NC(=O)OC(C)(C)C)c3cccs3)C(C)=C1C2(C)C` (stereo not shown) [Compound 2044], the IC50 was below 1 nM. As for `COC(=O)OC1C(=O)C2(C)C(O)CC3OCC3(OC(C)=O)C2C(OC(=O)c2ccccc2)C2(O)CC(OC(=O)C(O)C(NC(=O)OC(C)(C)C)c3ccsc3)C(C)=C1C2(C)C` (stereo not shown) [Compound 2050], the IC50 is below 1 nM. The value for `COC(=O)OC1C(=O)C2(C)C(O)CC3OCC3(OC(C)=O)C2C(OC(=O)c2ccccc2)C2(O)CC(OC(=O)C(O)C(NC(=O)OC(C)(C)C)C(C)C)C(C)=C1C2(C)C` (stereo not shown) [Compound 2062] was below 10 nM. For `COC(=O)OC1C(=O)C2(C)C(O)CC3OCC3(OC(C)=O)C2C(OC(=O)c2ccccc2)C2(O)CC(OC(=O)C(O)C(NC(=O)OC(C)(C)C)C3CCC3)C(C)=C1C2(C)C` (stereo not shown) [Compound 2077], the IC50 was below 10 nM. Consider `COC(=O)OC1C(=O)C2(C)C(O)CC3OCC3(OC(C)=O)C2C(OC(=O)c2ccccc2)C2(O)CC(OC(=O)C(O)C(NC(=O)OC(C)(C)C)c3ccc([N+](=O)[O-])cc3)C(C)=C1C2(C)C` (stereo not shown) [Compound 2088], for which the IC50 is below 1 nM. Consider `COC(=O)OC1C(=O)C2(C)C(O)CC3OCC3(OC(C)=O)C2C(OC(=O)c2ccccc2)C2(O)CC(OC(=O)C(O)C(NC(=O)OC(C)(C)C)c3ccccc3)C(C)=C1C2(C)C` (stereo not shown) [Compound 2092], for which the IC50 was below 1 nM. As for `CCOC(=O)OC1C(=O)C2(C)C(O)CC3OCC3(OC(C)=O)C2C(OC(=O)c2ccccc2)C2(O)CC(OC(=O)C(O)C(NC(=O)c3ccccc3)c3cccs3)C(C)=C1C2(C)C` (stereo not shown) [Compound 2972], the figure is below 10 nM; as for `CCOC(=O)OC1C(=O)C2(C)C(O)CC3OCC3(OC(C)=O)C2C(OC(=O)c2ccccc2)C2(O)CC(OC(=O)C(O)C(NC(=O)OC(C)C)c3cccs3)C(C)=C1C2(C)C` (stereo not shown) [Compound 2999], below 1 nM; as for `CCOC(=O)OC1C(=O)C2(C)C(O)CC3OCC3(OC(C)=O)C2C(OC(=O)c2ccccc2)C2(O)CC(OC(=O)C(O)C(NC(=O)OCC(C)C)c3cccs3)C(C)=C1C2(C)C` (stereo not shown) [Compound 3003], below 10 nM. As for `CCOC(=O)OC1C(=O)C2(C)C(O)CC3OCC3(OC(C)=O)C2C(OC(=O)c2ccccc2)C2(O)CC(OC(=O)C(O)C(NC(=O)c3ccco3)c3cccs3)C(C)=C1C2(C)C` (stereo not shown) [Compound 3011], the IC50 is below 1 nM. For the compound `CCOC(=O)OC1C(=O)C2(C)C(O)CC3OCC3(OC(C)=O)C2C(OC(=O)c2ccccc2)C2(O)CC(OC(=O)C(O)C(NC(=O)c3cccs3)c3cccs3)C(C)=C1C2(C)C` (stereo not shown) [Compound 3020], the IC50 was below 1 nM. Consider `CCCC(=O)NC(c1cccs1)C(O)C(=O)OC1CC2(O)C(OC(=O)c3ccccc3)C3C4(OC(C)=O)COC4CC(O)C3(C)C(=O)C(OC(=O)OCC)C(=C1C)C2(C)C` (stereo not shown) [Compound 3155], for which the IC50 is below 1 nM. On to `CCOC(=O)OC1C(=O)C2(C)C(O)CC3OCC3(OC(C)=O)C2C(OC(=O)c2ccccc2)C2(O)CC(OC(=O)C(O)C(NC(=O)OCC(C)C)c3ccco3)C(C)=C1C2(C)C` (stereo not shown) [Compound 3181], for which the IC50 is below 1 nM.

On to `CCOC(=O)OC1C(=O)C2(C)C(O)CC3OCC3(OC(C)=O)C2C(OC(=O)c2ccccc2)C2(O)CC(OC(=O)C(O)C(NC(=O)c3cccnc3)c3cccs3)C(C)=C1C2(C)C` (stereo not shown) [Compound 3300], for which the IC50 is below 10 nM. On to `CCOC(=O)OC1C(=O)C2(C)C(O)CC3OCC3(OC(C)=O)C2C(OC(=O)c2ccccc2)C2(O)CC(OC(=O)C(O)C(NC(=O)c3ccccn3)c3cccs3)C(C)=C1C2(C)C` (stereo not shown) [Compound 3433], for which the IC50 amounted to 22.3 nM.

For `CCCC(=O)NC(c1ccco1)C(O)C(=O)OC1CC2(O)C(OC(=O)c3ccccc3)C3C4(OC(C)=O)COC4CC(O)C3(C)C(=O)C(OC(=O)OCC)C(=C1C)C2(C)C` (stereo not shown) [Compound 3929], the IC50 was below 1 nM. Take `CCOC(=O)OC1C(=O)C2(C)C(O)CC3OCC3(OC(C)=O)C2C(OC(=O)c2ccccc2)C2(O)CC(OC(=O)C(O)C(NC(=O)OC(C)C)c3ccco3)C(C)=C1C2(C)C` (stereo not shown) [Compound 3963]: the IC50 is below 1 nM. Regarding `CC=CC(=O)NC(c1ccco1)C(O)C(=O)OC1CC2(O)C(OC(=O)c3ccccc3)C3C4(OC(C)=O)COC4CC(O)C3(C)C(=O)C(OC(=O)OCC)C(=C1C)C2(C)C` (stereo not shown) [Compound 4000], the IC50 is below 1 nM. The value for `CCOC(=O)OC1C(=O)C2(C)C(O)CC3OCC3(OC(C)=O)C2C(OC(=O)c2ccccc2)C2(O)CC(OC(=O)C(O)C(NC(=O)c3cccs3)c3ccco3)C(C)=C1C2(C)C` (stereo not shown) [Compound 4088] was below 10 nM.
